Assay [1] deals with TNFa. Briefly: TNFa ELISA, THP1-IFNy, LTA stimulated. It counts as cell-based. Conditions: 10 pt curve.
The next assay concerns the target T1, IRAK4 (Homo sapiens, UniProt Q9NWZ3).
T1 construct: purchased Signalchem I12-10G-20
T1 sequence (Q9NWZ3 1-460): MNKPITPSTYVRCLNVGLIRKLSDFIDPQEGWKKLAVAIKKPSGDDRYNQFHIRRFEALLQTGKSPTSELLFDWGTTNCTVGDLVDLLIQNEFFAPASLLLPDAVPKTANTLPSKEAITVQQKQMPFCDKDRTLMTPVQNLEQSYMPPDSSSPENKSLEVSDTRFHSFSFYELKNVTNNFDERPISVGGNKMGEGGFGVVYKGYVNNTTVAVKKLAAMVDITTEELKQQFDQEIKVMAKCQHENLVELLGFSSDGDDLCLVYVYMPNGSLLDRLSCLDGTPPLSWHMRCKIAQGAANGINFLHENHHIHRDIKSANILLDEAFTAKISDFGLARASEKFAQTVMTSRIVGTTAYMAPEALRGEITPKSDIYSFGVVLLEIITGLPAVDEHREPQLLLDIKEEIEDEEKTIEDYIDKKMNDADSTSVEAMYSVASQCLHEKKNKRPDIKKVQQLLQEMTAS
Briefly: IRAK4 ADP-Glo assay. The class given is biochemical. Conditions: 8 pt curve; read-out: IRAK4 ADP-Glo Kinase, 8 pt. As to the method:
IRAK4 Kinase Enzyme (Signalchem, I12-10G-20); 0.1M DTT (Signalchem, D86-09B); MBP Substrate (Signalchem, M42-51N); ADP Glo (Promega, V9101); 1M MgCl2 (Teknova, M03304); 1M Tris-HCl pH7.4 (Teknova, T1074); BSA (Sigma (A3059); Distilled H2O
Wallac Victor2 1420 Multilabel Counter
The ADP-Glo™ reagents were thawed at ambient temperature. The Kinase Detection Reagent was prepared by mixing kinase detection buffer with the lyophilized kinase detection substrate, and set aside.
A stock volume of 5× Reaction Kinase Buffer was made with a final concentration of 100 mM MgCl2, 200 mM Tris-HCl, and 0.5 mg/ml of BSA, in distilled H2O with a final pH7.4. A 2× working stock volume of Reaction Kinase Buffer was made containing a final concentration of […].
The components of IRAK4 Enzyme were thawed on ice. Diluted IRAK4 in 1× Kinase Reaction Buffer (diluted from 2× buffer) was prepared at […]. A […] working stock ATP Assay Solution was prepared in 1× Kinase Reaction Buffer (diluted from 2× buffer).
The compound was diluted in DMSO from 250 µM in 4-fold series dilutions for 8 points. Then diluted 1:5 in 2× Reaction Buffer in a 96 well plate. 1.01 was transferred to a 384 well plate in duplicate. […] 1 μl of 1 mg/ml stock solution of MBP substrate was added NOTE: MBP can be combined with ATP mix with equal volume and then added at 2 d/well. Final reaction volume was 5 μl.
The plate was centrifuged and the reaction mixture was incubated at room temperature for 60 minutes or at 30° C. for 30 minutes.
The reaction was terminated and the remaining ATP was depleted by adding 5 μl of ADP-Glo™ Reagent. The 384-well plate was centrifuged and then the reaction mixture was incubated for another 40 minutes at ambient temperature.
10 μl of the Kinase Detection Reagent was added. The plate was centrifuged and then the reaction mixture was incubated for another 30 minutes at ambient temperature.
The 384-well reaction plate was read using the WALLAC plate reader (Luminescence 0.1s).

In the next assay the target is IRAK1 (Homo sapiens, UniProt P51617). Put plainly: IRAK1 ADP-Glo Kinase assay. The class given is biochemical. Conditions: 8 pt curve.
Chain of IRAK1 (P51617 whole entry): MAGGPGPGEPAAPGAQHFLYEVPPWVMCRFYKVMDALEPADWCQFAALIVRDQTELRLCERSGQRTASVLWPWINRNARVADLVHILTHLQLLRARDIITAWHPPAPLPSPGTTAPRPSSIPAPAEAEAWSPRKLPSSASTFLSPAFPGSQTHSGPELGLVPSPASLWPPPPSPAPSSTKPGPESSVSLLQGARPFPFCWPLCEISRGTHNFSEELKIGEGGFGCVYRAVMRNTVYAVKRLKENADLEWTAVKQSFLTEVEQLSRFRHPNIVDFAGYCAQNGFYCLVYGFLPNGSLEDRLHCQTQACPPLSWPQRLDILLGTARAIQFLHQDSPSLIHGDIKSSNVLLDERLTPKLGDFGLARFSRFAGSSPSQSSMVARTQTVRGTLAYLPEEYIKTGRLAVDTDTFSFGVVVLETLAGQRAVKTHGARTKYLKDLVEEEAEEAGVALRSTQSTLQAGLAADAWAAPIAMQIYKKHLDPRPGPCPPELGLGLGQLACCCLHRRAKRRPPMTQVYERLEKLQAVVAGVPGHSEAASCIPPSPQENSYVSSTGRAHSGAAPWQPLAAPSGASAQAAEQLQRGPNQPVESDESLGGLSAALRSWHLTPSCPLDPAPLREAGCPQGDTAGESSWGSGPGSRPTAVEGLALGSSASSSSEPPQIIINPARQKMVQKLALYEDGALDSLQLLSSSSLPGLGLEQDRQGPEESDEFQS
Assay [2] deals with TNFa. Briefly: TNFa ELISA, PBMC, Resiquimod (R848) stimulated. The class given is cell-based. Conditions: 10 pt curve.
In assay [3] the test system is TNFa. Briefly: TNFa ELISA, dendritic cells, Gardiquimod stimulated. It counts as cell-based. As to conditions: Homo sapiens, Dendritic cell, 10 pt curve.
For a further assay, the system named is IL23-p19. Briefly: LPS induced IL23p19 in THP-1 cells (IFNγ primed), sandwich ELISA. The class given is cell-based. As to conditions: Homo sapiens; THP-1 cells primed with IFNγ, LPS 1 μg/mL, 10 pt curve; read-out: IL23-p19 ELISA, THP1-IFNy, LPS, 10 pt. The source says: LPS Induced IL23p19 in THP-1 Cells (with IFNγ Primed) Assay
THP-1 Cells (ATCC, Cat #TIB-202), Dimethyl Sulfoxide (DMSO) (Sigma-Aldrich, Cat #D2650), RPMI 1640 (Cellgro, Cat #10-040-CM), Fetal Bovine Serum (Sigma, Cat #F4135), Albumin From Bovine Serum (BSA) (Sigma-Aldrich, Cat #A7906), LPS (Serotype K-235, Sigma, Product Number L 2143), IFNγ (Peprotech, Cat #300-02), Capture antibody: Human IL-23p19 ELISA (e-Bioscience, Cat. #14-7238-85), Detection antibody: Primary Mouse Biotinylated anti-human IL-12(p40/p70) (e-Bioscience, Cat. #13-7129-85), Secondary HRP-conjugated Streptavidin (R&D Systems, Cat #DY998), 1×PBST Washing Buffer (PBS-Tween tablet) (VWR International, Cat #80058-558), ELISA Blocking Buffer (PBS with 1% BSA), ELISA Dilution Buffer (PBS with 1% BSA), 384 Well Flat-Bottom, MaxiSorp Black Immuno Plates (Thermo Scientific, Cat #12-565-346), 384 Well Flat-Bottom, White Tissue Culture Plates (Thermo Scientific, Cat #12-565-343), Super Signal ELISA Pico Chemiluminescent Substrate (Thermo Scientific, Cat #37070), Cell Titer Glo reagent (Promega, Cat #G7573), Positive control, IKK2VI inhibitor (Calbiochem, Cat #401483), AquaMax 4000 plate washer (Molecular Devices), Luminometer, Wallac Victor2 1420 Multilabel Counter.
On day 1, 50K/well THP-1 cells were seeded and primed with IFNγ (50 ng/mL) in 384-well plates for about 18 hours in RPMI media with 10% FBS. On day 2, the compound was serially diluted in DMSO from 5 mM in 3-fold dilutions, and then diluted 1:125 in RPMI media with 10% FBS. 50 μL/well 2× compound was added to 50 μL/well THP-1 cells (with IFNγ primed) in duplicate in 384 well tissue culture plates. The cells were pre-incubated with compound for 1 hour at 37° C., 5% CO2 before addition of 10 μL/well 11×LPS to give a final concentration of 1 μg/mL LPS. Day 3, after stimulation for 18 hours at 37° C., 5% CO2, the assay plate was centrifuged and 70 μL/well supernatant was harvested. IL-23p19 protein in 70 μL/well of supernatant was measured by sandwich ELISA, and 25 μl/well Cell Titer Glo reagent was added to the remaining cells to measure compound toxicity.
Human IL-23p19 Sandwich ELISA:
Maxisorp immuno ELISA plates were pre-coated with 25 μL/well of anti-IL-23p19 capture antibody (2.5 ug/mL) in PBS overnight at room temperature. After washing with 1×PBST, the plates were blocked using 100 μL/well of 1% BSA in PBS for 2 hours at room temperature. The plates were washed three times with 1×PBST and 70 μL/well supernatant were added. The plates were incubated at room temperature for 2 hours with shaking and washed three times with 1×PBST. 25 μL/well of biotin labeled anti-IL-12(p40/p70) detection antibody (100 ng/mL) in PBS with 1% BSA was added and the plates were incubated at room temperature for 2 hours with shaking. After washing three times with 1×PBST, 25 μL/well of streptavidin-HRP (1:200) in PBS with 1% BSA was added and the plates were incubated at room temperature for 20 minutes with shaking. The plates were washed three times with 1×PBST and 25 μL/well of Super Signal ELISA Pico Chemiluminescent Substrate were added. The plates were read with a luminometer, and the chemiluminescence values were entered into Athena (Rigel) for curve fitting, EC50 calculation, and database storage.

Counter-ions that a name gives are not always drawn.

Turning to `Cc1c[nH]c(=O)c2cc3ccnc(OC[C@@H]4CCC(=O)N4)c3cc12` [I-2, (S)-4-methyl-6-((5-oxopyrrolidin-2-yl)methoxy)pyrido[3,4-g]isoquinolin-1(2H)-one formic acid salt], the EC50 is 0.274 µM in the assay on TNFa [1] and 0.135 µM in the assay on TNFa [2] (formic acid salt). Moreover, the IC50 on IRAK4 stood at 0.0067 µM; against IRAK1 it was 3.84 µM.
As to `O=C1CC[C@@H](COc2nccc3cc4c(=O)[nH]cc(CCO)c4cc23)N1` [I-22, (S)-4-(2-hydroxyethyl)-6-((5-oxopyrrolidin-2-yl)methoxy)pyrido[3,4-g]isoquinolin-1(2H)-one], the results for the IC50 on IRAK4 and at IRAK1 were 0.0104 µM and 9.08 µM, respectively. In addition, the EC50 was 2.01 µM in the assay with TNFa [3], 6.98 µM with IL23-p19 and 4.47 µM with TNFa [2].
Consider `NCC#Cc1c[nH]c(=O)c2cc3ccnc(OC[C@@H]4CCC(=O)N4)c3cc12` [I-29, (S)-4-(3-aminoprop-1-yn-1-yl)-6-((5-oxopyrrolidin-2-yl)methoxy)pyrido[3,4-g]isoquinolin-1(2H)-one], for which the IC50 was 1.43 µM on IRAK4 and 34.6 µM against IRAK1. Also, the EC50 stood at 9.09 µM with TNFa [3], 14 µM in the assay on IL23-p19 and 1.46 µM in the assay on TNFa [2].
